How the values were obtained:
Format in all cases: cell-based
Proteus mirabilis = assay: MIC against Gram-negative bacteria: Proteus mirabilis; conditions: 10 h cultivation at 37° C., 5×10^5 CFU/mL, two-fold serial dilution
In short: (§1)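 Purified recombinant human EGF domain proteins are tested by broth dilution in LB against a 5×10^5 CFU/mL inoculum, with two-fold serial dilutions run in triplicate. Plates are incubated at 37° C with shaking, and the MIC is read as the lowest protein concentration without growth.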

Pseudomonas aeruginosa = assay: MIC against Gram-negative bacteria: Pseudomonas aeruginosa; conditions: 10 h cultivation at 37° C., 5×10^5 CFU/mL, two-fold serial dilution
In short: as §1

Aeromonas hydrophila = assay: MIC against Gram-negative bacteria: Aeromonas hydrophila; conditions: 10 h cultivation at 37° C., 5×10^5 CFU/mL, two-fold serial dilution
In short: as §1

Klebsiella pneumonia = assay: MIC against Gram-negative bacteria: Klebsiella pneumonia; conditions: 10 h cultivation at 37° C., 5×10^5 CFU/mL, two-fold serial dilution
In short: as §1

Proteus vulgaris = assay: MIC against Gram-negative bacteria: Proteus vulgaris; conditions: 10 h cultivation at 37° C., 5×10^5 CFU/mL, two-fold serial dilution
In short: as §1

Citrobacter diversus = assay: MIC against Gram-negative bacteria: Citrobacter diversus; conditions: 10 h cultivation at 37° C., 5×10^5 CFU/mL, two-fold serial dilution
In short: as §1

Moraxella catarrhalis = assay: MIC against Gram-negative bacteria: Moraxella catarrhalis; conditions: 10 h cultivation at 37° C., 5×10^5 CFU/mL, two-fold serial dilution
In short: as §1

E. coli BL21 = assay: MIC against Gram-negative bacteria: E. coli BL21; conditions: 10 h cultivation at 37° C., 5×10^5 CFU/mL, two-fold serial dilution
In short: as §1

Enterobacter cloacae = assay: MIC against Gram-negative bacteria: Enterobacter cloacae; conditions: 10 h cultivation at 37° C., 5×10^5 CFU/mL, two-fold serial dilution
In short: as §1

E. coli DH5α = assay: Antibacterial activity: MIC and growth curve against E. coli DH5α in 96-well plate; conditions: minimal inhibitory concentration against E. coli DH5α; 96-well plate, 5×10^5 CFU/mL, 37° C., judged after 8 h
In short: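 Log-phase bacteria (OD600 ~0.5) resuspended in LB at 5×10^5 CFU/mL, exposed to recombinant protein at 50, 25, 12.5 μg/mL final in triplicate, 37 °C shaking at 175 rpm. OD600 read every 30 min; MIC is lowest concentration showing no growth.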

Serratia marcescens = assay: MIC against Gram-negative bacteria: Serratia marcescens; conditions: 10 h cultivation at 37° C., 5×10^5 CFU/mL, two-fold serial dilution
In short: as §1

| Substance | MIC P. mirabilis (Proteus mirabilis) [µg/mL] | MIC P. aeruginosa (Pseudomonas aeruginosa) [µg/mL] | MIC A. hydrophila (Aeromonas hydrophila) [µg/mL] | MIC K. pneumonia (Klebsiella pneumonia) [µg/mL] | MIC P. vulgaris (Proteus vulgaris) [µg/mL] | MIC C. diversus (Citrobacter diversus) [µg/mL] | MIC M. catarrhalis (Moraxella catarrhalis) [µg/mL] | MIC E. coli BL21 (E. coli BL21) [µg/mL] | MIC E. cloacae (Enterobacter cloacae) [µg/mL] | MIC (E. coli DH5α) [µg/mL] | MIC S. marcescens (Serratia marcescens) [µg/mL] |
| --- | --- | --- | --- | --- | --- | --- | --- | --- | --- | --- | --- |
| PRT1058 (DIDECQLGEHSCGENASCTNTEGGYTCMCAGRLSEPGLICP; listed as Homo sapiens) | 12.5 | 50 | 50 | 25 | 50 | 12.5 | 50 | 25 | 12.5 | 12.5 | 12.5 |
| PRT1059 (SDSECPLSHDGYCLHDGVCMYIEALDKYACNCVVGYIGERCQ; listed as Homo sapiens) | 12.5 | 50 | 25 | 12.5 | 25 | 50 | 12.5 | 12.5 | 25 | 50 | 12.5 |
| PRT1061 (KRDPCLRKYKDFCIHGECKYVKELRAPSCICHPGYHGERCH; listed as Homo sapiens) | 25 | 12.5 | 12.5 | 12.5 | 12.5 | 12.5 | 50 | 12.5 | 12.5 | 12.5 | 25 |
| PRT1062 (LQGNCSRLGCQHHCVPTLDGPTCYCNSSFQLQADGKTCK; listed as Homo sapiens) | 12.5 | 25 | 25 | 12.5 | 25 | 50 | 25 | 50 | 25 | 25 | 50 |
| PRT1063 (ELSPCRINNGGCQDLCLLTHQGHVNCSCRGGRILQDDLTCR; listed as Homo sapiens) | 25 | 50 | 50 | 25 | 25 | 12.5 | 50 | 25 | 12.5 | 12.5 | 12.5 |
| PRT1064 (INECLSRKLSGCSQDCEDLKIGFKCRCRPGFRLKDDGRTCA; listed as Homo sapiens) | 50 | 25 | 25 | 12.5 | 25 | 12.5 | 25 | 50 | 50 | 25 | 12.5 |
| PRT1067 (KLTSCATNASICGDEARCVRTEKAAYCACRSGFHTVPGQPGCQ; listed as Homo sapiens) | 25 | 25 | 25 | 12.5 | 50 | 25 | 12.5 | 50 | 25 | 25 | 25 |
| PRT1068 (DINECLRFGTCSQLCNNTKGGHLCSCARNFMKTHNTCK; listed as Homo sapiens) | 25 | 25 | 50 | 12.5 | 50 | 25 | 12.5 | 50 | 25 | 12.5 | 25 |

Source: US9833497B2, “Human originated EGF domain proteins and use of the same” (CHENGDU SOURCEBIO LIMITED-LIABILITY COMPANY, priority 2013, dated 2017)
